These are literature values, as cited in patent publication US20210145778A1, “Stable Liquid Compositions of Melphalan” (Orbicular Pharmaceutical Technologies Pvt. Ltd., priority 2018, published 2021).

As for `N[C@@H](Cc1ccc(N(CCCl)CCCl)cc1)C(=O)O` [Melphalan, L-phenylalanine mustard], the “Stability in aqueous solutions” value is listed as “poor stability”.
